Measured values as given in patent US6083976A, “Method of synthesis of derivatives of aloesin” (Univera Pharmaceuticals, Inc., priority 1999, dated 2000).
Like-named read-outs stand apart in the source and are kept apart here.

Tests used:
tyrosinase [1] = settings: cited from earlier work
tyrosinase [2] = assay: Tyrosinase activity assay using L-DOPA as a substrate; assay type: biochemical; settings: for IC50: L-DOPA 0.4 mM, 48 U tyrosinase, absorbance at 475 nm, read-out: average concentration for 50% tyrosinase inhibition
Method: Example 2 illustrates the general method for determination of tyrosinase inhibition by the alkylated aloesins, using octylaloesin for purposes of illustration.
A tyrosinase activity assay was performed using L-DOPA as a substrate. Each 750 μL assay mixture contained KH2 PO4 /K2 HPO4 at a concentration of 50 mM, L-DOPA at a concentration of 0.4 mM, 48 U of tyrosinase activity (tyrosinase obtained from SIGMA at 4,400 U/mg), and varying concentrations of the inhibitor being tested. The progress of the reaction was monitored by measuring the absorbance of the reaction mixture at 475 nm.

[3] = relative to hydroquinone; cited from earlier work

Compound | mode of tyrosinase inhibition (Lineweaver Burk diagram) (tyrosinase [1]) | IC50 (tyrosinase [2]) [µM] | quantity required to achieve a similar effect, compared to the quantity of hydroquinone used [3] | also measured
CC(=O)Cc1cc(=O)c2c(C)cc(O)c([C@@H]3O[C@H](CO)[C@@H](O)[C@H](O)[C@H]3O)c2o1 [Aloesin] | non-competitive inhibitors of tyrosinase | 250 | – | IC50 (tyrosinase [1]; substrate L-DOPA, read-out: concentration for 50% inhibition of tyrosinase activity): 200 µM
OC[C@H]1O[C@@H](Oc2ccc(O)cc2)[C@H](O)[C@@H](O)[C@@H]1O [arbutin] | – | – | over 100 times | –
COc1cc(/C=C/C(=O)O[C@@H]2[C@@H](O)[C@H](O)[C@@H](CO)O[C@H]2c2c(O)cc(C)c3c(=O)cc(CC(C)=O)oc23)ccc1O [2"-O-feruloylaloesin] | non-competitive inhibitors of tyrosinase | – | – | –
CCCCCCCCOc1cc(C)c2c(=O)cc(CC(C)=O)oc2c1[C@@H]1O[C@H](CO)[C@@H](O)[C@H](O)[C@H]1O [Octylaloesin] | – | 107 | – | fold more potent as a tyrosinase inhibitor than aloesin (tyrosinase [2]; ratio of 50% inhibition concentrations): approximately 2.3 fold
O=C1O[C@H]([C@@H](O)CO)C(O)=C1O [ascorbic acid] | – | – | 17 times | –
